How the values were obtained:
[1] = tested on: Cabbage Looper (Trichoplusia ni) ("CL"), second instar larvae; experiment: Bioassay on cabbage looper (CL), 128-well diet tray assay; type: in vivo; settings: Trichoplusia ni, read-out: CL (Biological Results, rating)
How it was run: (§1)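 Covered trays were held at 25° C. under a 14:10 light-dark cycle for five to seven days. Percent mortality was then scored in each well, and activity across eight wells was averaged.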

[2] = tested on: Beet Armyworm (Spodoptera exigua) ("BAW"), second instar larvae; experiment: Bioassay on beet armyworm (BAW), 128-well diet tray assay; type: in vivo; settings: Spodoptera exigua, read-out: BAW (Biological Results, rating)
How it was run: as §1

Row | Structure (SMILES) | pest or weed control at 50 µg/cm2 [1] | pest or weed control at 50 µg/cm2 [2]
1 | CC(C)c1ccc(N(C)C)cc1N1C(=O)CS/C1=N\C(=O)Nc1ccc(-c2ncn(-c3ccc(C(F)(F)F)cn3)n2)cc1Cl [Compound J296, (Z)-1-(2-Chloro-4-(1-(5-(trifluoromethyl)pyridin-2-yl)-1H-1,2,4-triazol-3-yl)phenyl)-3-(3-(5-(dimethylamino)-2-isopropylphenyl)-4-oxothiazolidin-2-ylidene)urea] | 50 to 100% | 50 to 100%
2 | Cc1ccc(COCC(F)(F)F)c(N2C(=O)CS/C2=N\C(=O)Nc2ccc(-c3ncn(-c4ccc(C(F)(F)F)cn4)n3)cc2C)c1 [Compound J297, (Z)-1-(3-(5-Methyl-2-((2,2,2-trifluoroethoxy)methyl)phenyl)-4-oxothiazolidin-2-ylidene)-3-(2-methyl-4-(1-(5-(trifluoromethyl)pyridin-2-yl)-1H-1,2,4-triazol-3-yl)phenyl)urea] | 50 to 100% | 50 to 100%
3 | COCc1ccc(C)cc1N1C(=O)CS/C1=N\C(=O)Nc1ccc(-c2ncn(-c3ccc(C(F)(F)F)cn3)n2)cc1F [Compound J298, (Z)-1-(2-Fluoro-4-(1-(5-(trifluoromethyl)pyridin-2-yl)-1H-1,2,4-triazol-3-yl)phenyl)-3-(3-(2-(methoxymethyl)-5-methylphenyl)-4-oxothiazolidin-2-ylidene)urea] | 50 to 100% | 50 to 100%
4 | CCOCc1ccc(C)cc1N1C(=O)CS/C1=N\C(=O)Nc1ccc(-c2ncn(-c3ccc(C(F)(F)F)cn3)n2)cc1F [Compound J299, (Z)-1-(3-(2-(Ethoxymethyl)-5-methylphenyl)-4-oxothiazolidin-2-ylidene)-3-(2-fluoro-4-(1-(5-(trifluoromethyl)pyridin-2-yl)-1H-1,2,4-triazol-3-yl)phenyl)urea] | 50 to 100% | 50 to 100%
5 | COC(C)c1cc(C)ccc1N1C(=O)CS/C1=N\C(=O)Nc1ccc(-c2ncn(-c3ccc(C(F)(F)F)cn3)n2)cc1F (stereo not drawn) [Compound J300, (Z)-1-(2-Fluoro-4-(1-(5-(trifluoromethyl)pyridin-2-yl)-1H-1,2,4-triazol-3-yl)phenyl)-3-(3-(2-(1-methoxyethyl)-4-methylphenyl)-4-oxothiazolidin-2-ylidene)urea] | 50 to 100% | 50 to 100%
6 | Cc1ccc(C(C)C)c(N2C(=O)CS/C2=N\C(=O)Nc2ccc(-c3ncn(-c4ccc(C(F)(F)F)cn4)n3)cc2C(F)(F)F)c1 [Compound J301, (Z)-1-(3-(2-Isopropyl-5-methylphenyl)-4-oxothiazolidin-2-ylidene)-3-(2-(trifluoromethyl)-4-(1-(5-(trifluoromethyl)pyridin-2-yl)-1H-1,2,4-triazol-3-yl)phenyl)urea] | 50 to 100% | 50 to 100%
7 | CC(C)c1ccc(N(C)C)cc1N1C(=O)CS/C1=N\C(=O)Nc1ccc(-c2ncn(-c3ccc(C(F)(F)F)cn3)n2)cc1C(F)(F)F [Compound J302, (Z)-1-(3-(5-(Dimethylamino)-2-isopropylphenyl)-4-oxothiazolidin-2-ylidene)-3-(2-(trifluoromethyl)-4-(1-(5-(trifluoromethyl)pyridin-2-yl)-1H-1,2,4-triazol-3-yl)phenyl)urea] | 50 to 100% | 50 to 100%
8 | COC(C)c1ccc(C)cc1N1C(=O)CS/C1=N\C(=O)Nc1ccc(-c2ncn(-c3ccc(C(F)(F)F)cn3)n2)cc1C(F)(F)F (stereo not drawn) [Compound J303, (Z)-1-(3-(2-(1-Methoxyethyl)-5-methylphenyl)-4-oxothiazolidin-2-ylidene)-3-(2-(trifluoromethyl)-4-(1-(5-(trifluoromethyl)pyridin-2-yl)-1H-1,2,4-triazol-3-yl)phenyl)urea] | 50 to 100% | 50 to 100%
9 | Cc1ccc(COCC(F)(F)F)c(N2C(=O)CS/C2=N\C(=O)Nc2ccc(-c3ncn(-c4ccc(C(F)(F)F)cn4)n3)cc2C(F)(F)F)c1 [Compound J304, (Z)-1-(3-(5-Methyl-2-((2,2,2-trifluoroethoxy)methyl)phenyl)-4-oxothiazolidin-2-ylidene)-3-(2-(trifluoromethyl)-4-(1-(5-(trifluoromethyl)pyridin-2-yl)-1H-1,2,4-triazol-3-yl)phenyl)urea] | 50 to 100% | 50 to 100%
10 | Cc1ccc(OCCC(F)(F)F)c(N2C(=O)CS/C2=N\C(=O)Nc2ccc(-c3ncn(-c4ccc(C(F)(F)F)cn4)n3)cc2C(F)(F)F)c1 [Compound J305, (Z)-1-(3-(5-Methyl-2-(3,3,3-trifluoropropoxy)phenyl)-4-oxothiazolidin-2-ylidene)-3-(2-(trifluoromethyl)-4-(1-(5-(trifluoromethyl)pyridin-2-yl)-1H-1,2,4-triazol-3-yl)phenyl)urea] | 50 to 100% | 50 to 100%
11 | COC(C)c1ccc(C)cc1N1C(=O)CS/C1=N\C(=O)Nc1ccc(-c2ncn(-c3ccc(C(F)(F)F)cn3)n2)cc1Cl (stereo not drawn) [Compound J306, (Z)-1-(2-Chloro-4-(1-(5-(trifluoromethyl)pyridin-2-yl)-1H-1,2,4-triazol-3-yl)phenyl)-3-(3-(2-(1-methoxyethyl)-5-methylphenyl)-4-oxothiazolidin-2-ylidene)urea] | 50 to 100% | 50 to 100%
12 | Cc1ccc(OCCC(F)(F)F)c(N2C(=O)CS/C2=N\C(=O)Nc2ccc(-c3ncn(-c4ccc(C(F)(F)F)cn4)n3)cc2F)c1 [Compound J307, (Z)-1-(2-Fluoro-4-(1-(5-(trifluoromethyl)pyridin-2-yl)-1H-1,2,4-triazol-3-yl)phenyl)-3-(3-(5-methyl-2-(3,3,3-trifluoropropoxy)phenyl)-4-oxothiazolidin-2-ylidene)urea] | 50 to 100% | 50 to 100%
13 | Cc1ccc(COCC(F)(F)F)c(N2C(=O)CS/C2=N\C(=O)Nc2ccc(-c3ccn(-c4ccc(C(F)(F)F)cn4)n3)cc2F)c1 [Compound J308, (Z)-1-(2-Fluoro-4-(1-(5-(trifluoromethyl)pyridin-2-yl)-1H-pyrazol-3-yl)phenyl)-3-(3-(5-methyl-2-((2,2,2-trifluoroethoxy)methyl)phenyl)-4-oxothiazolidin-2-ylidene)urea] | 50 to 100% | 50 to 100%
14 | COC(C)c1ccc(C)cc1N1C(=O)CS/C1=N\C(=O)Nc1ccc(-c2ccn(-c3ccc(C(F)(F)F)cn3)n2)cc1F (stereo not drawn) [Compound J309, (Z)-1-(2-Fluoro-4-(1-(5-(trifluoromethyl)pyridin-2-yl)-1H-pyrazol-3-yl)phenyl)-3-(3-(2-(1-methoxyethyl)-5-methylphenyl)-4-oxothiazolidin-2-ylidene)urea] | 50 to 100% | 50 to 100%
15 | Cc1ccc(COCC(F)(F)F)c(N2C(=O)CS/C2=N\C(=O)Nc2ccc(-c3ccn(-c4ccc(C(F)(F)F)cn4)n3)cc2C)c1 [Compound J310, (Z)-1-(3-(5-Methyl-2-((2,2,2-trifluoroethoxy)methyl)phenyl)-4-oxothiazolidin-2-ylidene)-3-(2-methyl-4-(1-(5-(trifluoromethyl)pyridin-2-yl)-1H-pyrazol-3-yl)phenyl)urea] | 50 to 100% | 50 to 100%
16 | COC(C)c1ccc(C)cc1N1C(=O)CS/C1=N\C(=O)Nc1ccc(-c2ccn(-c3ccc(C(F)(F)F)cn3)n2)cc1C (stereo not drawn) [Compound J311, (Z)-1-(3-(2-(1-Methoxyethyl)-5-methylphenyl)-4-oxothiazolidin-2-ylidene)-3-(2-methyl-4-(1-(5-(trifluoromethyl)pyridin-2-yl)-1H-pyrazol-3-yl)phenyl)urea] | 50 to 100% | 50 to 100%
17 | Cc1ccc(OCCC(F)(F)F)c(N2C(=O)C(Cl)S/C2=N\C(=O)Nc2ccc(-c3ncn(-c4ccc(C(F)(F)F)cc4)n3)cc2)c1 (stereo not drawn) [Compound J317, (Z)-1-(5-Chloro-3-(5-methyl-2-(3,3,3-trifluoropropoxy)phenyl)-4-oxothiazolidin-2-ylidene)-3-(4-(1-(4-(trifluoromethyl)phenyl)-1H-1,2,4-triazol-3-yl)phenyl)urea] | 50 to 100% | 50 to 100%
18 | COc1ccc(OCCC(F)(F)F)c(N2C(=O)CS/C2=N\C(=O)Nc2ccc(-c3ncn(-c4ccc(OC(F)(F)F)cc4)n3)cc2)c1 [Compound J320, (Z)-1-(3-(5-Methoxy-2-(3,3,3-trifluoropropoxy)phenyl)-4-oxothiazolidin-2-ylidene)-3-(4-(1-(4-(trifluoromethoxy)phenyl)-1H-1,2,4-triazol-3-yl)phenyl)urea] | 50 to 100% | 50 to 100%
19 | CN(C)c1ccc(OCCC(F)(F)F)c(N2C(=O)CS/C2=N\C(=O)Nc2ccc(-c3ncn(-c4ccc(OC(F)(F)F)cc4)n3)cc2)c1 [Compound J321, (Z)-1-(3-(5-(Dimethylamino)-2-(3,3,3-trifluoropropoxy)phenyl)-4-oxothiazolidin-2-ylidene)-3-(4-(1-(4-(trifluoromethoxy)phenyl)-1H-1,2,4-triazol-3-yl)phenyl)urea] | 50 to 100% | 50 to 100%
20 | Cc1ccc(N(C)C)c(N2C(=O)CS/C2=N\C(=O)Nc2ccc(-c3ncn(-c4ccc(OC(F)(F)F)cc4)n3)cc2)c1 [Compound J322, (Z)-1-(3-(2-(dimethylamino)-5-methylphenyl)-4-oxothiazolidin-2-ylidene)-3-(4-(1-(4-(trifluoromethoxy)phenyl)-1H-1,2,4-triazol-3-yl)phenyl)urea] | 50 to 100% | 50 to 100%
21 | Cc1ccc(C(C)C)c(N2C(=O)CS/C2=N\C(=O)Nc2ccc(-c3ncn(-c4cccc(C(F)(F)F)c4)n3)cc2)c1 [Compound J323, (Z)-1-(3-(2-isopropyl-5-methylphenyl)-4-oxothiazolidin-2-ylidene)-3-(4-(1-(3-(trifluoromethyl)phenyl)-1H-1,2,4-triazol-3-yl)phenyl)urea] | 50 to 100% | 50 to 100%

From US20230077362A1 (CORTEVA AGRISCIENCE LLC, priority 2019, published 2023)
